From patent publication US20260091147A1, “METHOD FOR DETECTING INNATE IMMUNE ACTION IN VIVO USING GPR84-PET” (The Board of Trustees of the Leland Standford Junior …, priority 2023, published 2026)

How the values were obtained:
[1] = molecular target: T1, CSF1R (Mus musculus, UniProt P09581); conditions: LPS 10 mg/kg; cited from earlier work
T1 construct: host or cells: mouse brain in vivo, LPS 10 mg/kg
T1 sequence (P09581 20-977): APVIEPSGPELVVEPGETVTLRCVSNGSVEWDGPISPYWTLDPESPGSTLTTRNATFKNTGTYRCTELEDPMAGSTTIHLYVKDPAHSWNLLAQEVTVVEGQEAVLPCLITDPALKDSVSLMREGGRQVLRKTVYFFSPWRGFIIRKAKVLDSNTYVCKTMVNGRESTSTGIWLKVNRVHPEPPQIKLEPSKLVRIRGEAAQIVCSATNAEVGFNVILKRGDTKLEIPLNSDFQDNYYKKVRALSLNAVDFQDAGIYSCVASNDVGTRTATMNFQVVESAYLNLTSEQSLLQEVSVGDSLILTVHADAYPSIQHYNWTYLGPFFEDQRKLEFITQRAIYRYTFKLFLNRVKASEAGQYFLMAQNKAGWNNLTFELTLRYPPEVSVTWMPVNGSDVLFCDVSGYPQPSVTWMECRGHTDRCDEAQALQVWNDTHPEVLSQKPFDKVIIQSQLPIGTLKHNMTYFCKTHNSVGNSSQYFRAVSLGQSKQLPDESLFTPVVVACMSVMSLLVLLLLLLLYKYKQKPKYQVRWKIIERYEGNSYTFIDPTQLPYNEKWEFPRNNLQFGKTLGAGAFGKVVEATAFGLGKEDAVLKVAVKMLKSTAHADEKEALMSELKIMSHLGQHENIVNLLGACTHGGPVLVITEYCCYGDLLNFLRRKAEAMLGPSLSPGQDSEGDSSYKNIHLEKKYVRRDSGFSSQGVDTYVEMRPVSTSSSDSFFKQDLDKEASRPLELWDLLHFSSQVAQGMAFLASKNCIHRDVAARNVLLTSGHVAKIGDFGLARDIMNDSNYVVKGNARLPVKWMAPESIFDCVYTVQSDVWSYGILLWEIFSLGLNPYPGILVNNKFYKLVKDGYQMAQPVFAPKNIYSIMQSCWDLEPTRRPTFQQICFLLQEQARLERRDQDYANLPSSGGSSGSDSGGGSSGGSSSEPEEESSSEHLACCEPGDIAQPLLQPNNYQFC

[2] = molecular target: human GPR84-Gαi2 fusion protein (Homo sapiens, UniProt Q9NQS5); assay: [3H]G9543 competition binding assay, membranes from Flp-In TREx 293 cells; conditions: competition with [3H]G9543; read-out: Kd (affinity for GPR84)
Description: To determine KD of GLPG38, a competitive binding assay was performed using a membrane preparation from cells expressing GPR84-Gi in addition to [^3H]G9543, a known GPR84 antagonist. [^11C]GLPG38 was then radiosynthesized via [^11C]methylation of desmethyl precursor using [^11C]methyl iodide. […] For animal studies, sepsis was induced in female C57BL/6J mice via intraperitoneal injection of lipopolysaccharide (LPS, 10 mg/kg); vehicle-treated mice were injected with saline alone. Dynamic 60 min PET/CT imaging was performed 24 hr following LPS-administration using [^11C]GLPG38. Subsequently, mice were perfused with PBS to remove blood, and radioactive signal was assessed in CNS and peripheral tissues via gamma counting. Ex vivo autoradiography of sagittal mouse brain sections was conducted to obtain high resolution images of [^11C]GLPG38 binding. To investigate alterations in GPR84 mRNA expression, quantitative polymerase-chain reaction was performed using mouse brain tissue and human monocyte-derived macrophage cells stimulated with LPS 24 hr prior to RNA extraction.

[3] = molecular target: T2, synaptic vesicle glycoprotein 2A receptor (Mus musculus, UniProt Q9JIS5); conditions: cited from earlier work
T2 construct: host or cells: healthy mouse brain in vivo

[4] = molecular target: T3, purinergic receptor subtype 7 (P2×7) (Mus musculus, UniProt Q9Z1M0); conditions: LPS 5 mg/kg; cited from earlier work
T3 construct: host or cells: mouse brain in vivo, LPS 5 mg/kg
T3 sequence (Q9Z1M0 1-595): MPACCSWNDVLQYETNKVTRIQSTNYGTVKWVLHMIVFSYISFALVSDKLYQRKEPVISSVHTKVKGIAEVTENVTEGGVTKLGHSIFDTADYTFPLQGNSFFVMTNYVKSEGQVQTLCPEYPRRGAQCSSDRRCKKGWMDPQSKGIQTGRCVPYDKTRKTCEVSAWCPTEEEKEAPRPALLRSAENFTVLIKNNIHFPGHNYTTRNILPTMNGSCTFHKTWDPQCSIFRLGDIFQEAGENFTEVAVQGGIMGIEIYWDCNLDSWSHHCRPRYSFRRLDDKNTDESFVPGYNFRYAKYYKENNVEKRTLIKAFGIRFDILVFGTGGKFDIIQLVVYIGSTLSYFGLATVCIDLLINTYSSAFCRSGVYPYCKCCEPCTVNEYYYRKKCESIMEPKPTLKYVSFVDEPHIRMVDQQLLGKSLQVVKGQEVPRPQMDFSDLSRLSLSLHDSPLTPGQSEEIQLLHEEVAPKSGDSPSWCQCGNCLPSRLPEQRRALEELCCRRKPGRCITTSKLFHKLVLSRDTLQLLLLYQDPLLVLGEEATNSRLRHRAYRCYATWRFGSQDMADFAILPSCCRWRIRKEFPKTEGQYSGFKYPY

[5] = molecular target: T4, postsynaptic dopamine D2 receptors (Rattus norvegicus, UniProt P61169); conditions: healthy rodents; cited from earlier work
T4 construct: host or cells: healthy rodent brain in vivo

[6] = Dynamic 60 min PET/CT of healthy mice, whole-brain time activity curve; format: in vivo, mouse; conditions: healthy mice
From the text: A transmission scan was acquired to correct for attenuation during image reconstruction. Following PET imaging, mice were transferred to a SOFIE GNEXT PET/CT for CT acquisition. PET/CT data were co-registered and analyzed using Inveon Research Workplace software to generate images and quantify radiotracer uptake in regions of interest (ROIs). A 3D ROI was manually defined for the whole brain using CT data as anatomical reference, then applied to the full dynamic data set to generate a time activity curve (TAC).
(§1) The count densities were averaged for all volumes of interest at each time point to obtain a time-activity curve (TAC). The TACs were normalized to injected dose, as measured by a CRC-15 PET dose calibrator (Capintec Inc.), and expressed as % injected dose per gram (% ID/g), assuming 1 g/mL. CT was performed in GNEXT depth of interaction (DOI) dual-layer detector system. Scintica VivoQuant software was used to visualize radiotracer uptake and define the 3D volumes of interest. 3D maximum intensity projection (MIP) PET/CT images were created using IRW software.
On days 15-16 after EAE induction, mice were catheterized and placed on the 4-mouse scanning bed of the Sofie GNEXT PET/CT scanner.

[7] = molecular target: T5, GPR84 (Mus musculus, UniProt Q8CIM5); assay: Dynamic PET/CT of brain in LPS-induced systemic inflammation vs saline, with or without GLPG1205 block; format: in vivo; conditions: LPS 5 mg/kg
T5 construct: tissue Jackson Laboratories; host or cells: female C57BL/6J mice (LPS, saline, EAE or naive): brain, spinal cord and peripheral organs
Description: (§2) To determine KD of GLPG38, a competitive binding assay was performed using a membrane preparation from cells expressing GPR84-Gi in addition to [^3H]G9543, a known GPR84 antagonist. [^11C]GLPG38 was then radiosynthesized via [^11C]methylation of desmethyl precursor using [^11C]methyl iodide. […] Dynamic 60 min PET/CT imaging was performed 24 hr following LPS-administration using [^11C]GLPG38. Subsequently, mice were perfused with PBS to remove blood, and radioactive signal was assessed in CNS and peripheral tissues via gamma counting. Ex vivo autoradiography of sagittal mouse brain sections was conducted to obtain high resolution images of [^11C]GLPG38 binding. To investigate alterations in GPR84 mRNA expression, quantitative polymerase-chain reaction was performed using mouse brain tissue and human monocyte-derived macrophage cells stimulated with LPS 24 hr prior to RNA extraction.
as §1
A range of doses (0.65, 0.75, and 0.90 mg/kg) of GLPG1205 were used to investigate whether the blocking was dose-dependent. […] GLPG1205 was injected intra-venously 10 min prior to radiotracer injection (n=4).

[8] = molecular target: T5, GPR84; assay: Ex vivo biodistribution (gamma counting) of GPR84 tracer in LPS- vs saline-treated mice; conditions: 20 min post injection
Description: FIGS. 11A-11B show ex vivo biodistribution and autoradiography. […] At 20 min postinjection, animals were perfused with saline and tissues were collected, weighed, and gamma-counted. […] Statistical analysis was performed using “Unpaired t test with Welch correction”, *=P<0.05. […] Cb=cerebellum, Ctx=cortex, Str=striatum, H=hippocampus, Mb=midbrain, Ob=olfactory bulb, and BS=brain stem.
as §2

[9] = Description: In vivo stability assay. […] Mice were perfused with PBS buffer (20 mL) under deep anesthesia (5 min, 20 min). The whole brain and liver lobe were removed from mouse place in two separate […] microcentrifuge tubes containing 500 μL acetonitrile, homogenized sample and placed on ice. The well-homogenized samples were transferred to two 1.5 mL microcentrifuge tubes, centrifuged at 9,400 g for 4 min at room temperature. Supernatants were transferred into gamma counting tubes; the pellets were transferred into separate tubes. All supernatants and pellets were counted using gamma counter to measure extraction efficiency. Each of the supernatant (150-200 μL) was transferred into HPLC vials with the inserts and injected into HPLC for radio-metabolic analysis.
At 5 and 20 min post-tracer injection, the analysis of the whole brain and liver was performed using analytical HPLC to assess the presence of potential radiometabolites.

[10] = molecular target: T5, GPR84; assay: Ex vivo autoradiography of brain sections from LPS-treated mice; format: in vivo; conditions: GLPG1205 5 mg/kg ([11C]GLPG38) or 1 mg/kg (11C-MGX-10S)
Description: To determine KD of GLPG38, a competitive binding assay was performed using a membrane preparation from cells expressing GPR84-Gi in addition to [^3H]G9543, a known GPR84 antagonist. [^11C]GLPG38 was then radiosynthesized via [^11C]methylation of desmethyl precursor using [^11C]methyl iodide. Binding specificity of [^11C]GLPG38 was assessed using human GPR84-stably-expressing human embryonic kidney cells (HEK-293) versus control HEK-293 cells. For animal studies, sepsis was induced in female C57BL/6J mice via intraperitoneal injection of lipopolysaccharide (LPS, 10 mg/kg); vehicle-treated mice were injected with saline alone. Dynamic 60 min PET/CT imaging was performed 24 hr following LPS-administration using [^11C]GLPG38. Subsequently, mice were perfused with PBS to remove blood, and radioactive signal was assessed in CNS and peripheral tissues via gamma counting. Ex vivo autoradiography of sagittal mouse brain sections was conducted to obtain high resolution images of [^11C]GLPG38 binding. To investigate alterations in GPR84 mRNA expression, quantitative polymerase-chain reaction was performed using mouse brain tissue and human monocyte-derived macrophage cells stimulated with LPS 24 hr prior to RNA extraction.
Ex vivo Audoradiography Confirms ^11C-MGX-10S Specificity.

T5 sequence (Q8CIM5 whole entry): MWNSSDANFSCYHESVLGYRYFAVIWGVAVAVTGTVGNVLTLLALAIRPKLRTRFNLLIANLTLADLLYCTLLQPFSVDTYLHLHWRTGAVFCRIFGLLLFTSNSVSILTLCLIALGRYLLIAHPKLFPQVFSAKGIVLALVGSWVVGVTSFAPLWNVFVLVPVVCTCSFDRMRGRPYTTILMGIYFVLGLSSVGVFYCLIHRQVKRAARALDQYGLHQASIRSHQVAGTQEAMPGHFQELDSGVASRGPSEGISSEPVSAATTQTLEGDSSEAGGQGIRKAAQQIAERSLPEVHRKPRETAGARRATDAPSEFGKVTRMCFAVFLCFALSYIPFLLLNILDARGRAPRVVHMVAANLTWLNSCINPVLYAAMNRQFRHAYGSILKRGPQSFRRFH
T2 sequence (Q9JIS5 whole entry): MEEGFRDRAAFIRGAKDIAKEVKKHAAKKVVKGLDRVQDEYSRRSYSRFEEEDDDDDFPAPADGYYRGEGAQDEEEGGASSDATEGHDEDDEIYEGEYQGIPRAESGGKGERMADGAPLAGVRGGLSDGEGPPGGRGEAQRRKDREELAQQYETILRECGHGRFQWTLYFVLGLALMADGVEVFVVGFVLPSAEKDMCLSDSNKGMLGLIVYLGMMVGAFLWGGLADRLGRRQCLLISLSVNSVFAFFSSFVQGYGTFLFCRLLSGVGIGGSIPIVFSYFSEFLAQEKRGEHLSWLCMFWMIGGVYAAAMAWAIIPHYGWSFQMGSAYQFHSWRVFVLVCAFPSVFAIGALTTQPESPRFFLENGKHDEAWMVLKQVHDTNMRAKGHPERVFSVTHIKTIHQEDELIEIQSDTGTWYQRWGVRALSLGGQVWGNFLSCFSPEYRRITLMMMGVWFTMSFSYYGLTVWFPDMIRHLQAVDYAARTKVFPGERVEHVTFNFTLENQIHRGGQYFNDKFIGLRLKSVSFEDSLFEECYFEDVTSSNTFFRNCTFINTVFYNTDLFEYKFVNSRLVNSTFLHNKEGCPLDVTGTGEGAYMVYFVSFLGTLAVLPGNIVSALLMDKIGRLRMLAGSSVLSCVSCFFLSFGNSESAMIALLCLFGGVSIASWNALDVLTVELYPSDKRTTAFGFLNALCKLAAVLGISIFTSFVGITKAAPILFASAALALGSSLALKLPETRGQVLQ
T4 sequence (P61169 whole entry): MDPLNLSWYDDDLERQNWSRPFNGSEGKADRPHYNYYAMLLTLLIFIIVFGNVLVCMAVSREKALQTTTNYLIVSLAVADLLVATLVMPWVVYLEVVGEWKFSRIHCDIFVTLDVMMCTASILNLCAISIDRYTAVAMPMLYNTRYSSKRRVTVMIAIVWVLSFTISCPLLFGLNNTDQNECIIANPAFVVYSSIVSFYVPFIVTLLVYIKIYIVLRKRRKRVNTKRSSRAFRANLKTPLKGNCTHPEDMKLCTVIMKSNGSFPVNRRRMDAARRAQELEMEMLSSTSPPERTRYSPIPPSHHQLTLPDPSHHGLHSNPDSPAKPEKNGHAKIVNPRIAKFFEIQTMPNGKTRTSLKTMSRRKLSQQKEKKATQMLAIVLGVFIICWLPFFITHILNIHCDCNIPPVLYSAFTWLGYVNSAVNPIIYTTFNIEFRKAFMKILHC
Sequence of human GPR84-Gαi2 fusion protein (Q9NQS5 whole entry, the tested form may be a part): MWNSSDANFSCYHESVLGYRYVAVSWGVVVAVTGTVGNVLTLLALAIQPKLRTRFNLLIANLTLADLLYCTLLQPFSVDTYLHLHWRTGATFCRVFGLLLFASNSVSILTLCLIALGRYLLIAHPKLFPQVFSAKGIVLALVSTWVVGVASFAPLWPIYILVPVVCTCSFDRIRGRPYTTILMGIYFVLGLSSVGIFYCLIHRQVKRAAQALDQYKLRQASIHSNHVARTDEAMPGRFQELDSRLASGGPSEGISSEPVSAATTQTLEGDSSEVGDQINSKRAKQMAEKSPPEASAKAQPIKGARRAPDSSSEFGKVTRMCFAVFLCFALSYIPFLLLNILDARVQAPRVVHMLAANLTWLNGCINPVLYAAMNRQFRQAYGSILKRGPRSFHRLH

CN1CCN(c2ccc(NC(=O)c3ccc(C#N)o3)c(N3CCCCC3)c2)CC1 [^11C-CPPC, [11C]5-Cyano-N-(4-(4-Methylpiperazin-1-YI)-2-(Piperidin-1-YI)Phenyl)Furan-2-Carboxamide]
higher binding in mouse brain, LPS vs control animal [1]: 55%

COc1cc2c(cc1C)-c1c(C)c(OC[C@@H]3COCCO3)cc(=O)n1CC2 [GLPG38]
Kd [2]: 11.8 nM

[11CH3]c1cnccc1CN1C[C@@H](c2cc(F)c(F)c(F)c2)CC1=O [^11C-UCBJ]
Brain 15 min/90 min ratio ([3]; healthy mouse brain): ~3
time of maximum brain uptake ([3]; healthy mouse): 15 min

[11CH3]N1C(=O)CC[C@H]1C(=O)NCc1cccc(C(F)(F)F)c1Cl [^11C-GSK1482160]
fold higher binding in brain, LPS vs saline-treated mice [4]: 3.2 fold

CCN1CCC[C@H]1CNC(=O)c1c(O)c(Cl)cc(Cl)c1O[11CH3] (racemic) [^11C-Raclopride]
Brain 5 min/60 min ratio [5]: ~2
time of maximum brain uptake [5]: 5 min

[11CH3]Oc1ccc2c(c1)CCn1c-2cc(OC[C@@H]2COCCO2)nc1=O [^11C-MGX-10S]
time of peak brain uptake [6]: ≤ 22.5 s
whole-brain uptake after washout, end of 60 min scan [6]: 1.89±0.35 % ID/g
peak whole-brain uptake ([6]; 60 min dynamic scan): 5.90±0.89 % ID/g
reduction of brain PET signal in LPS mice by GLPG1205 at end of scan ([7]; GLPG1205 0.65 mg/kg i.v. 10 min before tracer): 38.50%
increase in whole-brain radiotracer uptake, LPS vs saline, 30-60 min integration [7]: approximately 39.27%
higher brain accumulation in LPS vs saline-treated mice at end of scan ([7]; 60 min dynamic PET): 42.46%
adipose tissue uptake, saline-treated mice [8]: 0.63±0.15 % ID/g
kidney uptake, saline-treated mice [8]: 5.32±3.01 % ID/gram
liver uptake, saline-treated mice [8]: 4.51±0.15 % ID/gram
brain uptake, saline-treated mice ([8]; perfused): 0.45±0.06 % ID/g
adipose tissue uptake, LPS-treated mice ([8]; LPS 5 mg/kg): 1.16±0.50 % ID/g
kidney uptake, LPS-treated mice ([8]; LPS 5 mg/kg): 8.73±3.18 % ID/gram
liver uptake, LPS-treated mice ([8]; LPS 5 mg/kg): 7.08±1.27 % ID/gram
brain uptake, LPS-treated mice ([8]; LPS 5 mg/kg, perfused): 0.84±0.21 % ID/gram
radiometabolite M1 in brain at 20 min post injection ([9]; HPLC): 3%
radiometabolite M1 in liver at 20 min post injection ([9]; HPLC): 10%
intact radiotracer in liver at 20 min post injection ([9]; LPS-treated mice): 90%
intact radiotracer in liver, initial (5 min) ([9]; LPS-treated mice): 100%
intact radiotracer in brain at 5 min post injection ([9]; LPS-treated mice, n=3): 100%
intact radiotracer in brain at 20 min post injection ([9]; LPS-treated mice, n=3): 97%
tracer binding in LPS brain sections after pre-blocking with GLPG1205 [10]: dramatic reduction
